# Data from patent US20050201991A1, “Stem cell culture” (priority 2002, published 2005).
# System: NTERA2 human EC cells
# Experiment: Two fluorochrome flow cytometric analysis of FGF-4 reporter with SSEA-3 labelling on differentiation
# Type: cell-based
# Settings: retinoic acid treated versus undifferentiated NTERA2 cells
# Experimental: Variations of these vectors including pTK-GFP, p5FGF4EN-GFP and p5FGF4EN-Bact-GFP with WES site linking an antibiotic selection marker, for example puromycin or neonmycin resistance, to the expression of GFP were also created (IRESantibiotic selection marker sequences were inserted in the Notl cloning site immediately 3′ to the GFP sequence).
# The human embryonal carcinoma (EC) cell line, NTERA2 cl D1, was cultured in DMEM with 10% fetal calf serum as previously described (Andrews et al 1984). […]
# Human EC and ES cells were transfected by the same protocol: After incubation at 37° C. overnight the cells were transfected, following the manufacturer's protocol, as follows: 9.5 μg DNA was diluted into 300 μl 0.15 M NaCl and mixed with 21 μl ExGen 500 (MBI Fermentas) and vortexed. […] After incubating for 6-12 hours at 37 C, the medium was removed and the cells fed with fresh medium and fluorescence observed by microscopy under UV epi-illumination.
# Cell surface antigen expression of cultured cells was assessed by indirect immunofluorescence detected by flow cytofluorimetry, after harvesting the cultures as single cell suspensions using trypsin-EDTA, as described previously (Andrews et al 1987, Fenderson et al 1987). […] In some experiments, cells that were either positive or negative for SSEA3 and SSEA1 were isolated by fluorescence activated cell sorting (Andrews et al 1987).
smiles,measurement,setting,value
"CC1=C(/C=C/C(C)=C/C=C/C(C)=C/C(=O)O)C(C)(C)CCC1 [retenoic acid, all-trans-retinoic acid]",GFP expression from FGF-4 reporter,p5FGF4EN-GFPIP reporter,greatly reduced
same,SSEA-3 expression,,reduction
